Measurements published in PubChem BioAssay (NCI).
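Protocol summary: plate cells (96-well), add compound at 5 concentrations, incubate 48 h, interpolate endpoints linearly. The concentration for 50% growth inhibition is given as GI50. TGI: concentration producing complete growth inhibition.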

How the values were obtained:
Test in all cases: NCI anticancer screen, dose series, 48 h
786-0 renal = tested on: 786-0 renal
A498 renal = tested on: A498 renal
A549 NSCLC = tested on: A549 NSCLC
ACHN renal = tested on: ACHN renal
BT-549 breast = tested on: BT-549 breast
CAKI-1 renal = tested on: CAKI-1 renal
CCRF-CEM leukemia = tested on: CCRF-CEM leukemia
COLO 205 colon = tested on: COLO 205 colon
DU-145 prostate = tested on: DU-145 prostate
EKVX NSCLC = tested on: EKVX NSCLC
HCC-2998 colon = tested on: HCC-2998 colon
HCT-116 colon = tested on: HCT-116 colon
HCT-15 colon = tested on: HCT-15 colon
HL-60(TB) leukemia = tested on: HL-60(TB) leukemia
HOP-62 NSCLC = tested on: HOP-62 NSCLC
HOP-92 NSCLC = tested on: HOP-92 NSCLC
HS 578T breast = tested on: HS 578T breast
HT29 colon = tested on: HT29 colon
IGROV1 ovarian = tested on: IGROV1 ovarian
K-562 leukemia = tested on: K-562 leukemia
KM12 colon = tested on: KM12 colon
LOX IMVI melanoma = tested on: LOX IMVI melanoma
M14 melanoma = tested on: M14 melanoma
MALME-3M melanoma = tested on: MALME-3M melanoma
MCF7 breast = tested on: MCF7 breast
MDA-MB-231 breast = tested on: MDA-MB-231 breast
MDA-MB-435 = tested on: MDA-MB-435
MOLT-4 leukemia = tested on: MOLT-4 leukemia
NCI-H226 lung = tested on: NCI-H226 lung

Structure (SMILES): CCN(CC)CC(O)CNc1c2ccc(Cl)cc2nc2ccc(OC)cc12 (stereo not drawn)
- GI50 (786-0 renal): 0.549 µM
- TGI (786-0 renal): 2.05 µM
- GI50 (A498 renal): 1.43 µM
- TGI (A498 renal): 2.89 µM
- GI50 (A549 NSCLC): 0.472 µM
- TGI (A549 NSCLC): 2.03 µM
- GI50 (ACHN renal): 0.935 µM
- TGI (ACHN renal): 3.79 µM
- GI50 (BT-549 breast): 1.63 µM
- TGI (BT-549 breast): 3.05 µM
- GI50 (CAKI-1 renal): 0.656 µM
- TGI (CAKI-1 renal): 2.33 µM
- GI50 (CCRF-CEM leukemia): 0.673 µM
- TGI (CCRF-CEM leukemia): 6.88 µM
- GI50 (COLO 205 colon): 0.528 µM
- TGI (COLO 205 colon): 1.68 µM
- GI50 (DU-145 prostate): 0.71 µM
- TGI (DU-145 prostate): 2.21 µM
- GI50 (EKVX NSCLC): 0.407 µM
- TGI (EKVX NSCLC): 2.08 µM
- GI50 (HCC-2998 colon): 0.549 µM
- TGI (HCC-2998 colon): 1.77 µM
- GI50 (HCT-116 colon): 0.367 µM
- TGI (HCT-116 colon): 1.41 µM
- GI50 (HCT-15 colon): 0.679 µM
- TGI (HCT-15 colon): 6.43 µM
- GI50 (HL-60(TB) leukemia): 0.96 µM
- TGI (HL-60(TB) leukemia): 3.32 µM
- GI50 (HOP-62 NSCLC): 1.01 µM
- TGI (HOP-62 NSCLC): 2.73 µM
- GI50 (HOP-92 NSCLC): 1.3 µM
- TGI (HOP-92 NSCLC): 3.84 µM
- GI50 (HS 578T breast): 1.24 µM
- TGI (HS 578T breast): 3.47 µM
- GI50 (HT29 colon): 0.356 µM
- TGI (HT29 colon): 1.48 µM
- GI50 (IGROV1 ovarian): 0.716 µM
- TGI (IGROV1 ovarian): 3.12 µM
- GI50 (K-562 leukemia): 0.312 µM
- TGI (K-562 leukemia): 0.979 µM
- GI50 (KM12 colon): 0.512 µM
- TGI (KM12 colon): 1.86 µM
- GI50 (LOX IMVI melanoma): 0.589 µM
- TGI (LOX IMVI melanoma): 1.79 µM
- GI50 (M14 melanoma): 1.35 µM
- TGI (M14 melanoma): 2.66 µM
- GI50 (MALME-3M melanoma): 1.63 µM
- TGI (MALME-3M melanoma): 3.35 µM
- GI50 (MCF7 breast): 0.621 µM
- TGI (MCF7 breast): 4.4 µM
- GI50 (MDA-MB-231 breast): 0.972 µM
- TGI (MDA-MB-231 breast): 3.06 µM
- GI50 (MDA-MB-435): 0.923 µM
- TGI (MDA-MB-435): 2.25 µM
- GI50 (MOLT-4 leukemia): 0.369 µM
- TGI (MOLT-4 leukemia): 1.58 µM
- GI50 (NCI-H226 lung): 0.886 µM
- TGI (NCI-H226 lung): 3.01 µM
